Where two headings read alike, the source gives them in different places.

Series [1] concerns HTT. The experiment in a line: HiBiT protein abundance assay, HTT (K562 HiBiT knock-in). The series is classed as cell-based, human. As to conditions: HiBiT knock-in K562 cells, 24 hours, top dose 10 μM. The method, boiled down:
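K562 HiBiT knock-in, 24 h, 37 °C, top 10 μM final, 3-fold ×10, DMSO ≤0.25%. Lytic HiBiT luminescence; PC = parental K562, NC = DMSO; 4PL IC50.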

For series [2], the system named is HTT mRNA. In words: RT-qPCR splicing assay, HTT mRNA canonical (CJ) and alternative (AJ) junction. It counts as cell-based, human. As to conditions: for AC50: HTT alternative junction mRNA, read-out: HTT AJ (increase in AJ mRNA, AC50). The procedure, abridged: (§1)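 A673 or K562 cells treated 24 h at 37 °C with an 11-point 3-fold dilution series (top 10 uM, DMSO ≤0.25%). Lysates went directly to one-step RT-qPCR quantifying canonical (CJ) and alternative-exon (AJ) junctions, normalized to GAPDH, GUSB or PPIA. Values from ΔΔCt versus DMSO, RQ = 2^(−ΔΔCt), expressed as percentage response.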

Series [3] deals with K562 cells. In words: Cell Titer Glo 2.0 cell viability (toxicity) assay, K562. As to conditions: 500 cells/well, 72 hours.
Series [4] relates to Target C. In words: HiBiT protein abundance assay, Target C (K562 HiBiT knock-in). As to conditions: HiBiT knock-in K562 cells, 24 hours, top dose 10 μM. The series is classed as cell-based, human. The method, boiled down: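 K562 HiBiT knock-in cells (10000/well) were treated 24 h at 37° C with a 10-point 3-fold dilution series (top 10 μM final, ≤0.25% DMSO). HiBiT luminescence was read after lytic LgBiT detection. Percent response used unmodified K562 and DMSO-treated knock-in controls, and IC50 came from a four-parameter fit at 50% of untreated.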

Series [5] relates to MYB mRNA. The experiment in a line: RT-qPCR splicing assay, MYB mRNA canonical (CJ) and alternative (AJ) junction. It counts as cell-based, human. Conditions: for AC50: MYB alternative junction mRNA, read-out: MYB AJ (increase in AJ mRNA, AC50). The procedure, abridged:
as §1

The mark [6] stands for this setting: Homo sapiens, HTT canonical junction mRNA, RT-qPCR, read-out: HTT CJ (decrease in CJ mRNA levels, IC50).
Where [7] appears, read: Homo sapiens, canonical junction qPCR panel, Table 4, read-out: HTT IC50 (decrease in CJ mRNA levels).
Where [8] appears, read: Homo sapiens, MYB canonical junction mRNA, RT-qPCR, read-out: MYB CJ (decrease in CJ mRNA levels, IC50).
Where [9] appears, read: Homo sapiens, canonical junction qPCR panel, Table 4, read-out: MYB IC50 (decrease in CJ mRNA levels).

With `Cn1cc2cc(-c3ccc4nc(N5CCC(NC6CC6)C5)ccc4n3)c(O)c(F)c2n1` (racemic) [Compound 287, 5-{6-[3-(cyclopropylamino)pyrrolidin-1-yl]-1,5-naphthyridin-2-yl}-7-fluoro-2-methylindazol-6-ol; trifluoroacetic acid], the IC50 in series [1], in series [2] (setting [6]), in series [2] (setting [7]), in series [4], in series [5] (setting [8]) and in series [5] (setting [9]) was < 100 nM throughout. Besides, the AC50 in series [2] (Homo sapiens, RT-qPCR) is < 100 nM; in series [5] (Homo sapiens, RT-qPCR), < 100 nM. Further, in series [3], the “Effect of Exemplary Compounds on Cell Viability, K562” value (from here on “Effect of Exemplary Compounds”) is recorded as “A (A represents <100 nM)”.
Regarding `CC(C)N[C@@H]1CCN(c2ccc3nc(-c4cc5cn(C)nc5c(F)c4O)ccc3n2)C1` (single isomer, unassigned) [Compound 285], the IC50 in series [1], in series [2] (setting [6]), in series [2] (setting [7]), in series [4], in series [5] (setting [8]) and in series [5] (setting [9]) was < 100 nM in each case. Further, the AC50 was < 100 nM in series [2] (Homo sapiens, RT-qPCR) and < 100 nM in series [5] (Homo sapiens, RT-qPCR). Besides, in series [3], the “Effect of Exemplary Compounds” value was “A (A represents <100 nM)”.
With `CC(C)N[C@H]1CCN(c2ccc3nc(-c4cc5cn(C)nc5c(F)c4O)ccc3n2)C1` (single isomer, unassigned) [Compound 286], the IC50 in series [1], in series [2] (setting [6]), in series [2] (setting [7]), in series [4], in series [5] (setting [8]) and in series [5] (setting [9]) was < 100 nM in each case. In addition, the AC50 is < 100 nM in series [2] (Homo sapiens, RT-qPCR) and < 100 nM in series [5] (Homo sapiens, RT-qPCR). In addition, the “Effect of Exemplary Compounds” value in series [3] is on record as “A (A represents <100 nM)”.
Regarding `Cc1c(O)c(-c2ccc3nc(N4CC[C@@H](NC5CCC5)C4)ccc3n2)cc2cn(C)nc12` (single isomer, unassigned) [Compound 289], the IC50 in series [1], in series [2] (setting [6]), in series [2] (setting [7]), in series [4], in series [5] (setting [8]) and in series [5] (setting [9]) was < 100 nM in each case. The AC50 was < 100 nM in series [2] (Homo sapiens, RT-qPCR) and < 100 nM in series [5] (Homo sapiens, RT-qPCR). The “Effect of Exemplary Compounds” value in series [3] is given as “A (A represents <100 nM)”.
For `Cc1c(O)c(-c2ccc3nc(N4CC[C@H](NC5CCC5)C4)ccc3n2)cc2cn(C)nc12` (single isomer, unassigned) [Compound 290], the IC50 in series [1], in series [2] (setting [6]), in series [2] (setting [7]), in series [4], in series [5] (setting [8]) and in series [5] (setting [9]) was < 100 nM each time. Also, the AC50 in series [2] (Homo sapiens, RT-qPCR) was < 100 nM; in series [5] (Homo sapiens, RT-qPCR) it was < 100 nM. Further, the “Effect of Exemplary Compounds” value in series [3] is given as “A (A represents <100 nM)”.
For `Cc1nc2cc(O)c(-c3ccc4nc(N5CCC(NCC6CC6)C5)ccc4n3)cc2o1` (single isomer, unassigned) [Compound 291, 6-(6-{3-[(cyclopropylmethyl)amino]pyrrolidin-1-yl}-1,5-naphthyridin-2-yl)-2-methyl-1,3-benzoxazol-5-ol], the IC50 in series [1] is < 100 nM; in series [2] (setting [6]) it was 100 to 1000 nM; in series [2] (setting [7]), 100 to 1000 nM; in series [4], 100 to 1000 nM; in series [5] (setting [8]) it was 100 to 1000 nM; in series [5] (setting [9]), 100 to 1000 nM. In addition, the AC50 in series [2] (Homo sapiens, RT-qPCR) fell in the range of 100 to 1000 nM; in series [5] (Homo sapiens, RT-qPCR) it was 100 to 1000 nM. In addition, the “Effect of Exemplary Compounds” value in series [3] is “B (B represents 100-1000 nM)”.
As for `Cc1nc2cc(O)c(-c3ccc4nc(N5CCC(NCC6CC6)C5)ccc4n3)cc2o1` (single isomer, unassigned) [Compound 292, 6-(6-{3-[(cyclopropylmethyl)amino]pyrrolidin-1-yl}-1,5-naphthyridin-2-yl)-2-methyl-1,3-benzoxazol-5-ol], the IC50 in series [1] was < 100 nM; in series [2] (HTT canonical junction mRNA, RT-qPCR, read-out: HTT CJ (decrease in CJ mRNA levels, IC50)), 100 to 1000 nM; in series [2] (canonical junction qPCR panel, Table 4, read-out: HTT IC50 (decrease in CJ mRNA levels)), 100 to 1000 nM; in series [4] it was < 100 nM; in series [5] (MYB canonical junction mRNA, RT-qPCR, read-out: MYB CJ (decrease in CJ mRNA levels, IC50)), < 100 nM; in series [5] (canonical junction qPCR panel, Table 4, read-out: MYB IC50 (decrease in CJ mRNA levels)), < 100 nM. For the same compound, the AC50 in series [2] (RT-qPCR) and in series [5] (RT-qPCR) was 100 to 1000 nM each time. Also, in series [3], the “Effect of Exemplary Compounds” value is listed as “B (B represents 100-1000 nM)”.
As to `Cc1nc2c(C)c(O)c(-c3ccc4nc(N5CC[C@@H](NCC6CC6)C5)ccc4n3)cc2o1` (single isomer, unassigned) [Compound 295], the half-inhibitory concentration (IC50) in series [1], in series [2] (setting [6]), in series [2] (setting [7]), in series [4], in series [5] (setting [8]) and in series [5] (setting [9]) was < 100 nM each time. Also, the AC50 in series [2] (Homo sapiens, RT-qPCR) is < 100 nM; in series [5] (Homo sapiens, RT-qPCR) it was < 100 nM. Also, in series [3], the “Effect of Exemplary Compounds” value is reported as “B (B represents 100-1000 nM)”.
Consider `Cc1nc2c(C)c(O)c(-c3ccc4nc(N5CC[C@H](NCC6CC6)C5)ccc4n3)cc2o1` (single isomer, unassigned) [Compound 296], for which the concentration for half-maximal inhibition (IC50) in series [1] was < 100 nM; in series [2] (setting [6]) it was < 100 nM; in series [2] (setting [7]), < 100 nM; in series [4], < 100 nM; in series [5] (setting [8]) it was 100 to 1000 nM; in series [5] (setting [9]) it was 100 to 1000 nM. Further, the concentration at half-maximal activity (AC50) is < 100 nM in series [2] (Homo sapiens, RT-qPCR) and < 100 nM in series [5] (Homo sapiens, RT-qPCR). Further, the “Effect of Exemplary Compounds” value in series [3] is “B (B represents 100-1000 nM)”.
For `Cn1cc2cc(-c3ccc4nc(N5CC[C@@H](N[C@H]6C[C@@H](F)C6)C5)ccc4n3)c(O)cc2n1` (single isomer, unassigned) [Compound 300], the IC50 in series [1], in series [2] (setting [6]), in series [2] (setting [7]), in series [4], in series [5] (setting [8]) and in series [5] (setting [9]) was < 100 nM each time. Further, the concentration at half-maximal activity (AC50) in series [2] (Homo sapiens, RT-qPCR) was < 100 nM; in series [5] (Homo sapiens, RT-qPCR) it was < 100 nM. Also, the “Effect of Exemplary Compounds” value in series [3] is “B (B represents 100-1000 nM)”.
`Cn1cc2cc(-c3ccc4nc(N5CC[C@@H](NCC6CC6)C5)ccc4n3)c(O)c(F)c2n1` (single isomer, unassigned) [Compound 303]: the IC50 in series [1], in series [2] (setting [6]), in series [2] (setting [7]), in series [4], in series [5] (setting [8]) and in series [5] (setting [9]) was < 100 nM in each case. Also, the AC50 in series [2] (Homo sapiens, RT-qPCR) was < 100 nM; in series [5] (Homo sapiens, RT-qPCR), < 100 nM. In series [3], the “Effect of Exemplary Compounds” value is reported as “A (A represents <100 nM)”.
In the case of `Cn1cc2cc(-c3ccc4nc(N5CC[C@H](NCC6CC6)C5)ccc4n3)c(O)c(F)c2n1` (single isomer, unassigned) [Compound 304], the IC50 in series [1], in series [2] (setting [6]), in series [2] (setting [7]), in series [4], in series [5] (setting [8]) and in series [5] (setting [9]) was < 100 nM each time. Further, the AC50 is < 100 nM in series [2] (Homo sapiens, RT-qPCR) and < 100 nM in series [5] (Homo sapiens, RT-qPCR). Besides, the “Effect of Exemplary Compounds” value in series [3] is listed as “A (A represents <100 nM)”.
Regarding `Cn1cc2cc(-c3ccc4nc(N5CC[C@@H](NC6CC6)C5)ccc4n3)c(O)c(F)c2n1` (single isomer, unassigned) [Compound 305], the IC50 in series [1], in series [2] (setting [6]), in series [2] (setting [7]), in series [4], in series [5] (setting [8]) and in series [5] (setting [9]) was < 100 nM throughout. Besides, the AC50 in series [2] (Homo sapiens, RT-qPCR) was < 100 nM; in series [5] (Homo sapiens, RT-qPCR), < 100 nM. Moreover, the “Effect of Exemplary Compounds” value in series [3] is “A (A represents <100 nM)”.
For `Cc1cn2nc(-c3ccc4nc(N5CCC(NC6CC6)C5)ccc4n3)c(O)c2c(C)n1` (centres unmarked) [Compound 252], the IC50 is 100 to 1000 nM in series [1]; < 100 nM in series [2] (setting [6]); < 100 nM in series [2] (setting [7]); 100 to 1000 nM in series [4]; 100 to 1000 nM in series [5] (setting [8]); 100 to 1000 nM in series [5] (setting [9]). For the same compound, the AC50 lay in the range of 100 to 1000 nM in series [2] (Homo sapiens, RT-qPCR) and 100 to 1000 nM in series [5] (Homo sapiens, RT-qPCR).
